Like-named read-outs stand apart in the source and are kept apart here.
Legend:
Assay in all cases: Test B pre-/postemergence plant response
Assay type in all cases: in vivo
[1] = test system: pigweed (Amaranthus retroflexus); conditions: for pest or weed control at 31 g/ha / pest or weed control at 62 g/ha: Amaranthus retroflexus, read-out: Plant response rating, Pigweed; for pest or weed control at 31 g/ha: 31 g ai/ha; for pest or weed control at 62 g/ha: 62 g ai/ha, 100 complete control
In short: (§1)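 Preemergence and postemergence (plants 2-18 cm, 1- to 4-leaf stage) applications used test chemicals in a non-phytotoxic solvent with surfactant. Plants were held in a greenhouse 13 to 15 days, then rated visually against controls on a 0-100 scale (0 no effect, 100 complete control).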

[2] = test system: cocklebur (Xanthium strumarium); conditions: for pest or weed control at 31 g/ha: 31 g ai/ha; for pest or weed control at 62 g/ha: 62 g ai/ha, 100 complete control
In short: as §1

[3] = test system: Russian thistle (Salsola iberica); conditions: Preemergence
In short: as §1

[4] = test system: large crabgrass (Digitaria sanguinalis); conditions: for pest or weed control at 31 g/ha: 31 g ai/ha; for pest or weed control at 62 g/ha: 62 g ai/ha, 100 complete control
In short: as §1

[5] = test system: Italian ryegrass (Lolium multiflorum); conditions: for pest or weed control at 31 g/ha / pest or weed control at 62 g/ha: Lolium multiflorum, read-out: Plant response rating, Ryegrass, Italian; for pest or weed control at 31 g/ha: 31 g ai/ha; for pest or weed control at 62 g/ha: 62 g ai/ha, 100 complete control
In short: as §1

[6] = test system: catchweed bedstraw (Galium aparine); conditions: Preemergence
In short: as §1

[7] = test system: surinam grass (Brachiaria decumbens); conditions: for pest or weed control at 31 g/ha / pest or weed control at 62 g/ha: Urochloa decumbens, read-out: Plant response rating, Surinam Grass; for pest or weed control at 31 g/ha: 31 g ai/ha; for pest or weed control at 62 g/ha: 62 g ai/ha, 100 complete control
In short: as §1

[8] = test system: common (oilseed) sunflower (Helianthus annuus); conditions: Preemergence
In short: as §1

soybean (Glycine max) = conditions: for plant injury at 31 g/ha / plant injury at 62 g/ha: Glycine max, read-out: Plant response rating, Soybean; for plant injury at 31 g/ha: 31 g ai/ha; for plant injury at 62 g/ha: 62 g ai/ha, 100 complete control
In short: as §1

[9] = test system: goosegrass (Eleusine indica); conditions: for pest or weed control at 31 g/ha / pest or weed control at 62 g/ha: Eleusine indica, read-out: Plant response rating, Goosegrass; for pest or weed control at 31 g/ha: 31 g ai/ha; for pest or weed control at 62 g/ha: 62 g ai/ha, 100 complete control
In short: as §1

[10] = test system: common ragweed (Ambrosia elation); conditions: for pest or weed control at 31 g/ha / pest or weed control at 62 g/ha: Ambrosia, read-out: Plant response rating, Ragweed; for pest or weed control at 31 g/ha: 31 g ai/ha; for pest or weed control at 62 g/ha: 62 g ai/ha, 100 complete control
In short: as §1

[11] = test system: downy bromegrass (Bromus tectorum); conditions: for pest or weed control at 31 g/ha: 31 g ai/ha
In short: as §1

[12] = test system: woolly cupgrass (Eriochloa villosa); conditions: for pest or weed control at 31 g/ha: 31 g ai/ha; for pest or weed control at 62 g/ha: 62 g ai/ha, 100 complete control
In short: as §1

[13] = 8 g ai/ha, postemergence, 0-100 scale
[14] = 16 g ai/ha, postemergence, 0-100 scale
[15] = post-emergence, Postemergence, scale 0 to 100
[16] = post-emergence, Postemergence, scale 0 to 100, 0 no effect
[17] = pre-emergence, Preemergence, scale 0 to 100 (0 no effect, 100 complete control)
[18] = pre-emergence, Preemergence, 0 to 100 scale, 0 no effect
[19] = Preemergence, 8 g ai/ha, scale 0 to 100 (0 no effect, 100 complete control)
[20] = Preemergence, 16 g ai/ha, scale 0 to 100
[21] = 8 g ai/ha, scale 0 to 100 (0 no effect, 100 complete control)

SMILES: Cc1cc(-c2ccc(Br)cc2)nn1-c1c(OC(=O)C2CC2)cnn(C(=O)C2CC2)c1=O [Compound 80, 5-[3-(4-bromophenyl)-5-methyl-1H-pyrazol-1-yl]-1-(cyclopropylcarbonyl)-1,6-dihydro-6-oxo-4-pyridazinyl cyclopropanecarboxylate]
- Pigweed plant response rating [1, 13]: 0
- Pigweed plant response rating [1, 14]: 0
- pest or weed control at 31 g/ha [1, 15]: 0%
- pest or weed control at 62 g/ha [1, 16]: 0%
- pest or weed control at 31 g/ha [1, 17]: 0%
- pest or weed control at 62 g/ha [1, 18]: 55%
- Pigweed plant response rating [1, 19]: 0
- Pigweed plant response rating [1, 20]: 0
- Cocklebur plant response rating [2, 13]: 0
- Cocklebur plant response rating [2, 19]: 0
- Cocklebur plant response rating [2, 20]: 0
- pest or weed control at 16 g/ha ([2]; Xanthium strumarium, post-emergence, Postemergence, 16 g ai/ha, scale 0 to 100, read-out: Plant response rating, Cocklebur): 0%
- pest or weed control at 31 g/ha ([2]; Xanthium strumarium, post-emergence, Postemergence, scale 0 to 100, read-out: Plant response rating, Cocklebur): 0%
- pest or weed control at 62 g/ha ([2]; Xanthium strumarium, post-emergence, Postemergence, scale 0 to 100, 0 no effect, read-out: Plant response rating, Cocklebur): 0%
- pest or weed control at 31 g/ha ([2]; Xanthium strumarium, pre-emergence, Preemergence, scale 0 to 100 (0 no effect, 100 complete control), read-out: Plant response rating, Cocklebur): 0%
- pest or weed control at 62 g/ha ([2]; Xanthium strumarium, pre-emergence, Preemergence, 0 to 100 scale, 0 no effect, read-out: Plant response rating, Cocklebur): 0%
- Russian Thistle plant response rating [3, 21]: 0
- Plant response rating, Russian Thistle ([3]; 31 g ai/ha, scale 0 to 100 (0 no effect, 100 complete control)): 0
- Plant response rating, Russian Thistle ([3]; 62 g ai/ha, 0 to 100 scale, 0 no effect, 100 complete control): 0
- Russian Thistle plant response rating ([3]; 16 g ai/ha, scale 0 to 100): 0
- Crabgrass, Large plant response rating [4, 13]: 98
- pest or weed control at 16 g/ha ([4]; Digitaria sanguinalis, post-emergence, Postemergence, 16 g ai/ha, scale 0 to 100, read-out: Plant response rating, Crabgrass, Large): 100%
- pest or weed control at 31 g/ha ([4]; Digitaria sanguinalis, post-emergence, Postemergence, scale 0 to 100, read-out: Plant response rating, Crabgrass, Large): 100%
- pest or weed control at 62 g/ha ([4]; Digitaria sanguinalis, post-emergence, Postemergence, scale 0 to 100, 0 no effect, read-out: Plant response rating, Crabgrass, Large): 100%
- pest or weed control at 31 g/ha ([4]; Digitaria sanguinalis, pre-emergence, Preemergence, scale 0 to 100 (0 no effect, 100 complete control), read-out: Plant response rating, Crabgrass, Large): 100%
- pest or weed control at 62 g/ha ([4]; Digitaria sanguinalis, pre-emergence, Preemergence, 0 to 100 scale, 0 no effect, read-out: Plant response rating, Crabgrass, Large): 100%
- Crabgrass, Large plant response rating [4, 19]: 0
- Crabgrass, Large plant response rating [4, 20]: 98
- Ryegrass, Italian plant response rating [5, 13]: 80
- Ryegrass, Italian plant response rating [5, 14]: 98
- pest or weed control at 31 g/ha [5, 15]: 100%
- pest or weed control at 62 g/ha [5, 16]: 100%
- pest or weed control at 31 g/ha [5, 17]: 40%
- pest or weed control at 62 g/ha [5, 18]: 100%
- Ryegrass, Italian plant response rating [5, 19]: 0
- Ryegrass, Italian plant response rating [5, 20]: 40
- pest or weed control at 31 g/ha ([6]; Galium aparine, pre-emergence, 31 g ai/ha, scale 0 to 100 (0 no effect, 100 complete control), read-out: Plant response rating, Galium): 0%
- pest or weed control at 62 g/ha ([6]; Galium aparine, pre-emergence, 62 g ai/ha, 0 to 100 scale, 0 no effect, 100 complete control, read-out: Plant response rating, Galium): 0%
- Galium plant response rating [6, 21]: 0
- Galium plant response rating ([6]; 16 g ai/ha, scale 0 to 100): 0
- Surinam Grass plant response rating [7, 13]: 95
- Surinam Grass plant response rating [7, 14]: 100
- Surinam Grass plant response rating [7, 19]: 0
- Surinam Grass plant response rating [7, 20]: 65
- pest or weed control at 31 g/ha [7, 15]: 100%
- pest or weed control at 62 g/ha [7, 16]: 100%
- pest or weed control at 31 g/ha [7, 17]: 98%
- pest or weed control at 62 g/ha [7, 18]: 100%
- pest or weed control at 31 g/ha ([8]; Helianthus annuus, pre-emergence, 31 g ai/ha, scale 0 to 100 (0 no effect, 100 complete control), read-out: Plant response rating, Sunflower): 0%
- pest or weed control at 62 g/ha ([8]; Helianthus annuus, pre-emergence, 62 g ai/ha, 0 to 100 scale, 0 no effect, 100 complete control, read-out: Plant response rating, Sunflower): 0%
- Sunflower plant response rating [8, 21]: 0
- Sunflower plant response rating ([8]; 16 g ai/ha, scale 0 to 100): 0
- Soybean plant response rating (soybean (Glycine max); [13]): 0
- Soybean plant response rating (soybean (Glycine max); [14]): 0
- plant injury at 31 g/ha (soybean (Glycine max); [15]): 15%
- plant injury at 62 g/ha (soybean (Glycine max); [16]): 20%
- plant injury at 31 g/ha (soybean (Glycine max); [17]): 0%
- plant injury at 62 g/ha (soybean (Glycine max); [18]): 0%
- Soybean plant response rating (soybean (Glycine max); [19]): 0
- Soybean plant response rating (soybean (Glycine max); [20]): 0
- Goosegrass plant response rating [9, 13]: 20
- Goosegrass plant response rating [9, 14]: 75
- pest or weed control at 31 g/ha [9, 15]: 85%
- pest or weed control at 62 g/ha [9, 16]: 98%
- pest or weed control at 31 g/ha [9, 17]: 100%
- pest or weed control at 62 g/ha [9, 18]: 100%
- Goosegrass plant response rating [9, 19]: 0
- Goosegrass plant response rating [9, 20]: 20
- Ragweed plant response rating [10, 13]: 0
- Ragweed plant response rating [10, 14]: 0
- pest or weed control at 31 g/ha [10, 15]: 0%
- pest or weed control at 62 g/ha [10, 16]: 0%
- pest or weed control at 31 g/ha [10, 17]: 0%
- pest or weed control at 62 g/ha [10, 18]: 0%
- Ragweed plant response rating [10, 19]: 0
- Ragweed plant response rating [10, 20]: 0
- Bromegrass, Downy plant response rating [11, 13]: 40
- pest or weed control at 16 g/ha ([11]; Bromus tectorum, post-emergence, Postemergence, 16 g ai/ha, scale 0 to 100, read-out: Plant response rating, Bromegrass, Downy): 45%
- pest or weed control at 31 g/ha ([11]; Bromus tectorum, post-emergence, Postemergence, scale 0 to 100, read-out: Plant response rating, Bromegrass, Downy): 90%
- pest or weed control at 31 g/ha ([11]; Bromus tectorum, pre-emergence, Preemergence, scale 0 to 100 (0 no effect, 100 complete control), read-out: Plant response rating, Bromegrass, Downy): 85%
- pest or weed control at 62 g/ha ([11]; Bromus tectorum, pre-emergence, Preemergence, 62 g ai/ha, 0 to 100 scale, 0 no effect, 100 complete control, read-out: Plant response rating, Bromegrass, Downy): 85%
- Bromegrass, Downy plant response rating [11, 19]: 0
- Bromegrass, Downy plant response rating [11, 20]: 30
- Cupgrass, Woolly plant response rating [12, 13]: 80
- pest or weed control at 16 g/ha ([12]; Eriochloa villosa, post-emergence, Postemergence, 16 g ai/ha, scale 0 to 100, read-out: Plant response rating, Cupgrass, Woolly): 95%
- pest or weed control at 31 g/ha ([12]; Eriochloa villosa, post-emergence, Postemergence, scale 0 to 100, read-out: Plant response rating, Cupgrass, Woolly): 100%
- pest or weed control at 62 g/ha ([12]; Eriochloa villosa, post-emergence, Postemergence, scale 0 to 100, 0 no effect, read-out: Plant response rating, Cupgrass, Woolly): 100%
- pest or weed control at 31 g/ha ([12]; Eriochloa villosa, pre-emergence, Preemergence, scale 0 to 100 (0 no effect, 100 complete control), read-out: Plant response rating, Cupgrass, Woolly): 98%
- pest or weed control at 62 g/ha ([12]; Eriochloa villosa, pre-emergence, Preemergence, 0 to 100 scale, 0 no effect, read-out: Plant response rating, Cupgrass, Woolly): 100%
- Cupgrass, Woolly plant response rating [12, 19]: 0
- Cupgrass, Woolly plant response rating [12, 20]: 65

From patent publication US20100267561A1, “HERBICIDAL PYRIDAZINONE DERIVATIVES” (priority 2007, published 2010)
